From ChEMBL document CHEMBL1201862, “PubChem BioAssay data set” (2004)
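All cell lines were grown in 96-well plates and treated with compound for 48 hours. GI50 marks 50% less growth.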 Calls of active or inactive are those of the source. Rule as the data show it: active = GI50 up to about 1.1 µM and inactive = higher.

Tests used:
Assay in all cases: NCI anticancer screen, dose series, 48 h
CCRF-CEM = test system: CCRF-CEM
OVCAR-5 = test system: OVCAR-5
UACC-62 = test system: UACC-62
HCC 2998 = test system: HCC 2998
SF-539 = test system: SF-539
HOP-62 = test system: HOP-62
MDA-MB-435 = test system: MDA-MB-435
U-251 = test system: U-251
UO-31 = test system: UO-31
NCI-H226 = test system: NCI-H226
NCI-H460 = test system: NCI-H460
HCT-15 = test system: HCT-15
SNB-75 = test system: SNB-75
ACHN = test system: ACHN
SK-MEL-5 = test system: SK-MEL-5
SK-OV-3 = test system: SK-OV-3
SK-MEL-2 = test system: SK-MEL-2
OVCAR-3 = test system: OVCAR-3
BT-549 = test system: BT-549

Compound | GI50 (CCRF-CEM) | GI50 (OVCAR-5) | GI50 (UACC-62) | GI50 (HCC 2998) | GI50 (SF-539) | GI50 (HOP-62) | GI50 (MDA-MB-435) | GI50 (U-251) | GI50 (UO-31) | GI50 (NCI-H226) | GI50 (NCI-H460) | GI50 (HCT-15) [µM] | GI50 (SNB-75) | GI50 (ACHN) | GI50 (SK-MEL-5) | GI50 (SK-OV-3) | GI50 (SK-MEL-2) | GI50 (OVCAR-3) | GI50 (BT-549)
COc1ccc(C2=CC(c3ccc4c(c3)OCO4)c3c(c4ccccc4oc3=O)O2)cc1OC (stereo unspecified) | 2.49 µM (inactive) | 4.85 µM (inactive) | 0.424 µM (active) | 1.46 µM (inactive) | 0.69 µM (active) | 1.44 µM (inactive) | 0.366 µM (active) | 1.98 µM (inactive) | 2.55 µM (inactive) | 0.546 µM (active) | 1.09 µM (active) | 0.546 | 0.51 µM (active) | 1.5 µM (inactive) | 0.766 µM (active) | 0.859 µM (active) |  |  | 
Cc1nc2ccc(Cl)cc2c2c1CCS2 | 46 µM (inactive) | > 100 µM (inactive) | 99.8 µM (inactive) | 77.4 µM (inactive) | 87.5 µM (inactive) | > 100 µM (inactive) | 68.5 µM (inactive) | > 100 µM (inactive) | 4.09 µM (inactive) | 51.6 µM (inactive) | 52.2 µM (inactive) | > 100 |  | 45.1 µM (inactive) | 27.6 µM (inactive) | > 100 µM (inactive) | 57.9 µM (inactive) | 47.8 µM (inactive) | 
CC(C)=NN/C(=N\c1ccc(Cl)cc1)NS(=O)(=O)c1ccc(C)cc1 | > 100 µM (inactive) | > 100 µM (inactive) | 49 µM (inactive) |  |  | 69 µM (inactive) | 92.9 µM (inactive) | 96.8 µM (inactive) | > 100 µM (inactive) | > 100 µM (inactive) | 57.8 µM (inactive) | > 100 |  | 40.5 µM (inactive) | 60.3 µM (inactive) |  | 73.1 µM (inactive) | 31.1 µM (inactive) | > 100 µM (inactive)
O=C(/C=C/c1ccccc1)CSc1nc[nH]n1 | 34.8 µM (inactive) | > 100 µM (inactive) | > 100 µM (inactive) | > 100 µM (inactive) | > 100 µM (inactive) | > 100 µM (inactive) |  | 37.1 µM (inactive) | > 100 µM (inactive) | > 100 µM (inactive) | 79.4 µM (inactive) | 41.3 | 14.3 µM (inactive) | > 100 µM (inactive) | 38.5 µM (inactive) | > 100 µM (inactive) | > 100 µM (inactive) | > 100 µM (inactive) | > 100 µM (inactive)
